# Results reported in ChEMBL document CHEMBL1124023, “Analgesic dipeptide derivatives. 4. Linear and cyclic analogues of the analgesic compounds arginyl-2-[(o-nitrophenyl)sulfenyl]tryptophan and lysyl-2-[(o-nitrophenyl)sulfenyl]tryptophan” (1988).
# Columns and labels:
# Type in all cases: functional
# Mus musculus [1] = experiment: Analgesic activity (5 ug icv) tested after 30min, in mice tail-flick test
# Mus musculus [2] = experiment: Analgesic activity (5 ug icv) tested after 5min, in mice tail-flick test
# Mus musculus [3] = experiment: Analgesic activity (5 ug icv) tested after 60min, in mice tail-flick test
# Mus musculus [4] = experiment: Analgesic activity (0.5 ug icv) tested after 30min, in mice tail-flick test
# Mus musculus [5] = experiment: Analgesic activity (0.5 ug icv) tested after 5min, in mice tail-flick test
# Mus musculus [6] = experiment: Analgesic activity (0.5 ug icv) tested after 60min, in mice tail-flick test
# Mus musculus [7] = experiment: Analgesic activity (2.5 ug icv) tested after 30min, in mice tail-flick test
# Mus musculus [8] = experiment: Analgesic activity (2.5 ug icv) tested after 5min, in mice tail-flick test
# Mus musculus [9] = experiment: Analgesic activity (2.5 ug icv) tested after 60min, in mice tail-flick test
# Mus musculus [10] = experiment: Analgesic activity (6.25 ug icv) tested after 30min, in mice tail-flick test
# Mus musculus [11] = experiment: Analgesic activity (6.25 ug icv) tested after 5min, in mice tail-flick test
# Mus musculus [12] = experiment: Analgesic activity (1 ug icv) tested after 30min, in mice tail-flick test
# Mus musculus [13] = experiment: Analgesic activity (1 ug icv) tested after 5min, in mice tail-flick test
# Mus musculus [14] = experiment: Analgesic activity (1 ug icv) tested after 60min, in mice tail-flick test
# Mus musculus [15] = experiment: Analgesic activity (3.125 ug icv) tested after 60min, in mice tail-flick test
# Mus musculus [16] = experiment: Analgesic activity (6.25 ug icv) tested after 60min, in mice tail-flick test
# Mus musculus [17] = experiment: Analgesic activity (3.125 ug icv) tested after 30min, in mice tail-flick test
# Mus musculus [18] = experiment: Analgesic activity (3.125 ug icv) tested after 5min, in mice tail-flick test
# Mus musculus [19] = experiment: Analgesic activity (0.5 ug icv) tested after 5 min in mice tail-flick test
# Mus musculus [20] = experiment: Analgesic activity (12.5 ug icv) tested after 30min, in mice tail-flick test
# Mus musculus [21] = experiment: Analgesic activity (12.5 ug icv) tested after 5min, in mice tail-flick test
# Mus musculus [22] = experiment: Analgesic activity (12.5 ug icv) tested after 60min, in mice tail-flick test
# Mus musculus [23] = experiment: Analgesic activity (25 ug icv) tested after 30min, in mice tail-flick test
# Mus musculus [24] = experiment: Analgesic activity (25 ug icv) tested after 5min, in mice tail-flick test
# Mus musculus [25] = experiment: Analgesic activity (25 ug icv) tested after 60min, in mice tail-flick test
# Mus musculus [26] = experiment: Analgesic activity (0.5 ug icv) tested after 30 min in mice tail-flick test
# Mus musculus [27] = experiment: Analgesic activity (0.5 ug icv) tested after 60 min in mice tail-flick test
Compound,Change in reaction time (Mus musculus [4]) [%],Change in reaction time (Mus musculus [5]) [%],Change in reaction time (Mus musculus [6]) [%],Change in reaction time (Mus musculus [7]) [%],Change in reaction time (Mus musculus [8]) [%],Change in reaction time (Mus musculus [9]) [%],also measured
COC(=O)[C@@H](CCCN=C(N)N)NC(=O)[C@H](N)Cc1cn(Sc2ccccc2[N+](=O)[O-])c2ccccc12.Cl,10,6,-2,3,16,-2,Change in reaction time (Mus musculus [1]): 42%; Change in reaction time (Mus musculus [2]): 34%; Change in reaction time (Mus musculus [3]): 29%
Cl.N=C(N)NCCCC1NC(=O)[C@H](Cc2cn(Sc3ccccc3[N+](=O)[O-])c3ccccc23)NC1=O (stereo in doubt),23,35,15,,,,
NC(N)=NCCC[C@@H](NC(=O)[C@H](N)Cc1ccc(O)cc1)C(=O)O,,,,,,,Change in reaction time (Mus musculus [10]): 68%; Change in reaction time (Mus musculus [11]): 102%; Change in reaction time (Mus musculus [12]): 5%; Change in reaction time (Mus musculus [13]): 10%; Change in reaction time (Mus musculus [14]): -2%; Change in reaction time (Mus musculus [15]): 15%; Change in reaction time (Mus musculus [16]): 10%; Change in reaction time (Mus musculus [17]): 34%; Change in reaction time (Mus musculus [18]): 79%
COC(=O)[C@H](Cc1cn(Sc2ccccc2[N+](=O)[O-])c2ccccc12)NC(=O)[C@@H](N)CCCN=C(N)N,52,120,22,,,,
COC(=O)[C@H](Cc1cn(Sc2ccccc2[N+](=O)[O-])c2ccccc12)NC(=O)[C@@H](N)CCCCN,50,98,20,,,,
COC(=O)[C@@H](CCCN=C(N)N)NC(=O)[C@@H](N)Cc1cn(Sc2ccccc2[N+](=O)[O-])c2ccccc12.Cl,23,,9,18,20,9,Change in reaction time (Mus musculus [1]): 88%; Change in reaction time (Mus musculus [2]): 97%; Change in reaction time (Mus musculus [3]): 30%; Change in reaction time (Mus musculus [19]): 18%
COC(=O)[C@H](CCCN=C(N)N)NC(=O)[C@H](N)Cc1cn(Sc2ccccc2[N+](=O)[O-])c2ccccc12.Cl,26,30,23,41,125,20,
COC(=O)[C@H](CCCCN)NC(=O)[C@@H](N)Cc1cn(Sc2ccccc2[N+](=O)[O-])c2ccccc12,76,138,33,,,,
NC(N)=NCCC[C@H](NC(=O)[C@@H](N)Cc1ccc(O)cc1)C(=O)O [KYOTORPHIN],,,,,,,Change in reaction time (Mus musculus [20]): 1%; Change in reaction time (Mus musculus [21]): 18%; Change in reaction time (Mus musculus [22]): 6%; Change in reaction time (Mus musculus [23]): 31%; Change in reaction time (Mus musculus [24]): 98%; Change in reaction time (Mus musculus [25]): 10%
COC(=O)[C@H](CCCN=C(N)N)NC(=O)[C@@H](N)Cc1cn(Sc2ccccc2[N+](=O)[O-])c2ccccc12.Cl,,,,,,,Change in reaction time (Mus musculus [26]): 63%; Change in reaction time (Mus musculus [19]): 113%; Change in reaction time (Mus musculus [27]): 20%
